# Results: patent US8168199B2, “Dipeptidyl peptidase IV inhibitors for the treatment of schizophrenia and depression” (priority 2000, dated 2012)
# Tested on: Male WistarF/Han (WF) rats
# Assay: Social interaction (SI) test of anxiety, i.c.v. P32/98 and NPY (Example 3)
# Format: in vivo, rat
# Details: i.c.v. 5 pmol-500 nmol
# Experimental: Animals. […]
# Animals were randomly divided into two sets of four experimental groups (n=5-6/group), which completed different consecutive SI test of anxiety. […] The time spent in active social interaction (SI-time), 1 h and 12 h food-intake were measured. […]
# Social interaction (SI) test. […] Behavior was monitored using a video camera placed above the field inside the testing/isolation box. The SI behavior of both rats was recorded on-line from a monitor placed outside on top of the box. The following parameters were scored by an observer (HPN) unaware of the substrain of rats: duration of time spent in sniffing, following, crawling under and over other rats, but not passive body contact (resting, sleeping). […]
# Statistical analysis. Data from repeated observations (food intake) were analyzed by two-way analyses of variance for repeated measures (ANOVA) (factors: “substrain” and “food intake” as repeated measure). […]
smiles,measurement,value
CC[C@H](C)[C@H](N)C(=O)N1CCSC1 [P32/98],"time spent in active social interaction (SI-time), P32/98 alone",“bell-shaped” dose-dependent anxiolytic-like effects
